{"source": "patent US20240142467A1", "about": "“Use of Biomarkers in the Treatment of Fibrotic Conditions with a PDE4B-inhibitor” (Boehringer Ingelheim International GmbH, priority 2022, published 2024)", "key": {"[1]": {"test_system": "patients with idiopathic pulmonary fibrosis", "assay": "Phase 2 trial NCT04419506: change from baseline in FVC at 12 weeks", "type": "in vivo, human", "conditions": "for lung function (FVC) compared to placebo: non-AF-background and AF-background groups; for lung function (FVC) compared to placebo / mean change in FVC from baseline to Week 12 / median change in FVC: 18 mg twice daily; for probability that the compound is superior to placebo: Bayesian borrowing analysis; for median change in FVC / median difference in FVC change vs placebo: Bayesian borrowing", "text": "Patients with a usual interstitial pneumonia (UIP) or probable UIP pattern on high-resolution computed tomography consistent with idiopathic pulmonary fibrosis, confirmed by central review, were eligible (Raghu et al, AM j Respir Crit Care Med 2019; 200:1089-1092). Patients also had forced FVC ≥45% predicted, and diffusing capacity of the lungs for carbon monoxide (DLco) corrected for hemoglobin 25-<80% predicted. Patients were permitted to continue antifibrotic therapy (nintedanib or pirfenidone) if they had been receiving a stable dose for at least 8 weeks prior to screening. Patients with airways obstruction, recent respiratory tract infection, or a history of suicidal behavior in the past 2 years, were excluded.\nThe primary endpoint—change from baseline in FVC at Week 12—was evaluated separately in patients without and with background antifibrotics at baseline, and included all data collected while on treatment. The primary analysis was based on a Bayesian borrowing approach in order to incorporate historical data for the placebo arms within the groups treated without or with background antifibrotics via meta-analytic predictive priors that were made robust against prior-data conflicts (Schmidli et al, Biometrics 2014 70: 1023-1032). A vaguely informative prior was used for the arms using the PDE4 inhibitor of formula A′ (Compound of formula A′ in the following). The primary endpoint analysis was conducted in a two-step procedure. In the first step, the data from the current trial were analyzed with a restricted maximum likelihood-based approach using a mixed model with repeated measurements (MMRM). The analysis included the fixed, categorical effect of treatment at each visit, and the fixed, continuous effects of baseline FVC at each visit. Visit was treated as the repeated measure, with an unstructured covariance structure used to model the within-patient measurements. Based on this model, the adjusted mean changes from baseline in FVC at 12 weeks (and the related standard error) were calculated for the Compound of formula A′ and placebo arms within the patient groups without and with background antifibrotics. In the second step, the adjusted means in the placebo arms were combined with the meta-analytic predictive priors derived based on the clinical trials in the nintedanib clinical development program in idiopathic pulmonary fibrosis. In order to evaluate the treatment effects in each group, the posterior distribution for the treatment difference of the compound of formula A′ versus placebo with respect to the primary endpoint was used. The median of the posterior distribution for the treatment difference (and 95% credible intervals) was calculated as the primary analysis, and posterior probabilities that the treatment difference was higher than different boundaries were reported.\nMissing data for the primary analysis (continuous endpoint) were not imputed. The MMRM analysis allows for missing data, assuming they are missing at random. Sensitivity analyses were conducted to investigate the potential effect of missing data as well as early discontinuation via a treatment policy strategy, and a pooled analysis combining all patients irrespective of background treatment with antifibrotics.\nAs this was an exploratory trial, no confirmatory testing and adjustment for multiplicity was planned. The sample size was chosen based on the evaluations of posterior probabilities for the change from baseline in FVC at Week 12, assuming a standard deviation of 200 mL and treatment differences of 70 mL and 20 mL in the patients treated without or with background antifibrotics, respectively."}, "[2]": {"test_system": "bleomycin-induced lung fibrosis", "assay": "Rat bleomycin model of pulmonary fibrosis", "type": "in vivo, Wistar rats", "experimental": "Pulmonary remodeling was induced in rats by a single intratracheal administration of 1 mg/kg bleomycin.\nAdult, test-naïve, male Wistar rats (WI(Han)); 280-300 g) were purchased from Janvier (Janvier Labs, Le Genest-Saint-Isle, France). All animal experimentation was conducted in accordance with German national guidelines and legal regulations and approved by the ethical committee Regierungspräsidium Tübingen (Germany) (Permit Number: 12-012).\nBleomycin was dissolved in phosphate buffered saline (PBS) to a final concentration of […]. On day 0, animals were transiently anaesthetised with isoflurane (3-4%) in oxygen. Using a 1 ml-Syringe with a 22-gauge flexible cannula, 200 μL/kg of either saline or bleomycin (final dose 1 mg/kg) were administered intratracheally.\nThe PDE4-inhibitor of formula A′ was dissolved in 0.5% hydroxyethyl cellulose containing 0.01% Tween20 and applied by oral gavage at a dose of 2.5 mL/kg twice daily at 06:00 and 18:00 from day 10 until day 20.\nOn day 18, animals were anaesthetized using 3-4% isoflurane and placed on the μCT (Quantum FX) scanner mounting plate. After measurement, animals were returned to the home cage for recovery. During imaging, synchronization procedures were employed for avoidance of motion blur (respiration, heart beat) thereby improving the quality of the images. The reconstruction of the three-dimensional pictures from the raw data could subsequently be performed.\nAnimals were anaesthetised with Narcoren (60 mg/mL/kg body weight i.p.) and Ketamine (0.5-1 mg/animal, i.m.). The trachea was exposed, a small incision made, and a tracheal tube fixed within the trachea by a ligature. Spontaneous breathing was suppressed by pancuronium (0.8 mg/kg; 1 mL/kg body weight, i.v.) and animals were mechanically ventilated with a tidal volume of 10 mL/kg, breathing frequency of 90 breaths/minute and a positive end expiratory pressure of 3 cmH2O. Airway resistance, compliance, elastance and pressure volume loop was determined by means of a FlexiVent system supported by software version 7.2. To perform the lung function measurement the template “FlexiVent FX-Rat Default-rel.B” with the script “Rat 6basic_1loop v7.0 Lamb” was used. A deep inspiration to total lung capacity (Deep Inflation) was performed with an inflation pressure limited to 30 cmH2O. A “Snapshot-90 v7.0, Quick Prime-3 v7.0, PVS-V v7.0 and PVs-P v7.0 measurement was subsequently conducted. After the lung function measurement animals were euthanized by an overdose of Narcoren (0.16 g/5 ml, 1 ml/animal i.v.).\nThe right main bronchus was occluded with a ligature and the right lung was removed. […]\nAll data are presented as means±S.E.M. of n animals. Statistical differences between groups were analyzed by the non-clinical statistical group."}, "[3]": {"conditions": "with background antifibrotics, Week 12"}, "[4]": {"conditions": "without background antifibrotics, Week 12"}}, "data": [{"smiles": "[O-][S@+]1CCc2nc(N3CCC(c4ncc(Cl)cn4)CC3)nc(NC3(CO)CCC3)c21", "note": "[Compound of formula A′]", "values": [{"measurement": "lung function (FVC) compared to placebo", "setting": "[1]", "value": "stabilized lung function"}, {"measurement": "lung function (FVC) compared to placebo", "setting": "[1]; listed as PDE4-inhibitor of formula A′", "value": "significantly slowed decrease in lung function"}, {"measurement": "adjusted mean change from baseline in FVC after 12 weeks", "setting": "[1]; pooled group with and without background antifibrotics, MMRM", "value": "+4.6 ml"}, {"measurement": "overall treatment effect on FVC (difference vs placebo)", "setting": "[1]; pooled group with and without background antifibrotics, MMRM, Week 12", "value": 88.4, "unit": "mL"}, {"measurement": "probability that the compound is superior to placebo", "setting": "[1]; with background antifibrotics", "value": 98.6, "unit": "%"}, {"measurement": "mean change in FVC from baseline to Week 12", "setting": "[1]; with background antifibrotics, MMRM", "value": "+2.7 mL"}, {"measurement": "difference in mean FVC change vs placebo", "setting": "[1]; with background antifibrotics, MMRM, Week 12", "value": 80.4, "unit": "mL"}, {"measurement": "median change in FVC", "setting": "[1]; [3]", "value": "+2.7 mL"}, {"measurement": "median difference in FVC change vs placebo", "setting": "[1]; [3]", "value": 62.4, "unit": "mL"}, {"measurement": "probability that the compound is superior to placebo", "setting": "[1]; without background antifibrotics", "value": 99.8, "unit": "%"}, {"measurement": "mean change in FVC from baseline to Week 12", "setting": "[1]; without background antifibrotics, MMRM", "value": "+6.1 mL"}, {"measurement": "difference in mean FVC change vs placebo", "setting": "[1]; without background antifibrotics, MMRM, Week 12", "value": 101.7, "unit": "mL"}, {"measurement": "median change in FVC", "setting": "[1]; [4]", "value": "+5.7 mL"}, {"measurement": "median difference in FVC change vs placebo", "setting": "[1]; [4]", "value": 88.4, "unit": "mL"}, {"measurement": "improvement in tissue volume (ratio of remodeled tissue to total lung volume) measured by μCT", "setting": "[2]; 2.5 mg/kg oral twice daily, day 10 to day 20, μCT on day 18, bleomycin 1 mg/kg intratracheal, P<0.05", "value": 64, "unit": "%"}, {"measurement": "restoration of lung volume measured at a pressure of 30 cmH2O", "setting": "[2]; oral twice daily, day 10 to day 20, FlexiVent, P<0.05", "value": 31, "unit": "%"}, {"measurement": "reduction of OPN levels in lung tissue", "setting": "[2]; oral twice daily, day 10 to day 20, OPN ELISA of right lung homogenate", "value": "approx. 49%"}, {"measurement": "lung function", "setting": "[2]; therapeutic rat model of bleomycin-induced lung fibrosis", "value": "improved lung function"}]}]}
